Measured values as given in patent publication US4659717A, “Dihydropyridines useful in the treatment of angina and stroke” (Eli Lilly and Company, priority 1985, dated 1987).

test system: Dog Coronary Artery; assay: Dog coronary artery test: relaxation of KCl-contracted coronary artery rings; type: cell-based; conditions: Canis lupus familiaris, coronary artery rings contracted with 50 mM KCl, 37° C.; IC50 = 50% relaxation; mean values, probit analysis
Protocol: Mongrel dogs of either sex and weighing 15 to 30 kg were anesthetized with pentobarbital (35 mg/kg). Each heart was quickly removed through a right thoracotomy and placed in Kreb's bicarbonate solution of the following composition (mM/L): NaCl, 118.2; KCl, 4.6; CaCl2.2H2 O, 1.6; KH2 PO4, 1.2; MgSO4.7H2 O, 1.2; NaHCO3, 24.8; and dextrose, 10.0. The medium was kept at room temperature and saturated with 95% O2 /5% CO2. The left anterior descending and circumflex coronary arteries were isolated and used either immediately or stored overnight at 5° C. Arteries were cut into rings approximately 2 to 3 mm wide, placed on 2 L-shaped hooks and mounted in a 10 ml organ bath by attaching one hook to a stationary glass rod and the other hook to a force-displacement transducer. Tissue medium consisted of Kreb's bicarbonate solution maintained at 37° C. and bubbled with 95 % O2 /5% CO2. Artery rings were equilibrated for 1-2 hours under a resting tension of 3 g. Tissue medium was then changed to one containing 50 mM KCl and 72.8 mM NaCl but otherwise identical to Kreb's bicarbonate solution. After tissues achieved a steady state contractile tension (1-2 hours) a given test agent was added to each bath and concentration-response curves determined. […] At the end of the concentration-response curve, tissue medium was changed to one identical to the 50 mM KCl buffer but containing 2.5 mM EGTA and no CaCl2.2H2 O to obtain complete relaxation of the tissue. Percent relaxation was then determined for each concentration and values producing 50% relaxation (IC50) were estimated using a probit analysis.

Question: With `CCOC(=O)C1=C(C)NC(C)=C(C(=O)OCC)C1c1c(SC)sc2ccccc12` [Example 15, 1,4-Dihydro-2,6-dimethyl-4-[2-(methylthio)benzo[b]thien-3-yl]-3,5-pyridinedicarboxylic acid, diethyl ester] as the molecule, how does the IC50 read?
Answer: 2750 nM

Question: How did the IC50 turn out when `COC(=O)C1=C(C)NC(C)=C(C(=O)OC(C)C)C1c1csc2cnccc12` (stereo not drawn) [Example 41, 1,4-Dihydro-2,6-dimethyl-4-thieno[2,3-c]pyridin-3-yl-3,5-pyridinedicarboxylic acid, monomethyl mono(1-methylethyl)ester] was run?
Answer: 32.4 nM

Question: With `CCOC(=O)C1=C(C)NC(C)=C(C(=O)OCC)C1c1csc2ccccc12` [Example 3, 4-Benzo[b]thien-3-yl-1,4-dihydro-2,6-dimethyl-3,5-pyridinedicarboxylic acid, diethyl ester] as the molecule, how does the IC50 read?
Answer: 79.4 nM

Question: With `COC(=O)C1=C(C)NC(C)=C(C(=O)OC(C)C)C1c1csc2ccccc12` (stereo not drawn) [Example 38, 4-Benzo[b]thien-3-yl-1,4-dihydro-2,6-dimethyl-3,5-pyridinedicarboxylic acid, methyl 1-methylethyl ester] as the molecule, how does the IC50 read?
Answer: 251 nM

Question: Which IC50 does the source give for `COC(=O)C1=C(C)NC(C)=C(C(=O)OC(C)(C)C)C1c1csc2ccncc12` (stereo not drawn) [Example 45, 1,4-Dihydro-2,6-dimethyl-4-thieno[3,2-c]pyridin-3-yl-3,5-pyridinedicarboxylic acid, methyl 1,1-dimethylethyl ester] here?
Answer: 646 nM

Question: For `CCOC(=O)C1=C(C)NC(C)=C(C(=O)OCC)C1c1csc2cc(N)ccc12` [Example 29, 4-(6-Aminobenzo[b]thien-3-yl)-1,4-dihydro-2,6-dimethyl-3,5-pyridinecarboxylic acid, diethyl ester], which IC50 is on record?
Answer: 1350 nM

Question: `CCOC(=O)C1=C(C)NC(C)=C(C(=O)OCC)C1c1c(C)sc2ccccc12` [Example 16, 1,4-Dihydro-2,6-dimethyl-4-(2-methylbenzo[b]thien-3-yl)-3,5-pyridinedicarboxylic acid, diethyl ester] was tested. Which IC50 did it give?
Answer: 407 nM

Question: With `CCOC(=O)C1=C(C)NC(C)=C(C(=O)OCC)C1c1csc2ccc(Br)cc12` [Example 22, 4-(5-Bromobenzo[b]thien-3-yl)-1,4-dihydro-2,6-dimethyl-3,5-pyridinedicarboxlic acid, diethyl ester] as the molecule, how does the IC50 read?
Answer: 39800 nM

Question: How did the IC50 turn out when `COC(=O)C1=C(C)NC(C)=C(C(=O)OC(C)C)C1c1csc2ccncc12` (stereo not drawn) [Example 20, 1,4-Dihydro-2,6-dimethyl-4-thieno[3,2-c]pyridin-3-yl-3,5-pyridinedicarboxylic acid, 3-methyl 5-isopropyl ester] was run?
Answer: 15.8 nM

Question: How did the IC50 turn out when `COCCOC(=O)C1=C(C)NC(C)=C(C(=O)OC)C1c1csc2ccncc12` (stereo not drawn) [Example 21, 1,4-Dihydro-2,6-dimethyl-4-thieno[3,2-c]pyridine-3-yl-3,5-pyridinedicarboxylic acid, 3-methyl 5-(2-methoxyethyl)ester] was run?
Answer: 61.7 nM

Question: For `CCOC(=O)C1=C(C)NC(C)=C(C(=O)OCC)C1c1csc2ccc(Cl)cc12` [Example 4, 4-(5-Chlorobenzo[b]thien-3-yl)-1,4-dihydro-2,6-dimethyl-3,5-pyridinedicarboxylic acid, diethyl ester], which IC50 is on record?
Answer: 3160 nM

Question: How did the IC50 turn out when `COC(=O)C1=C(C)NC(C)=C(C(=O)OCCN(C)Cc2ccccc2)C1c1csc2ccncc12` (stereo not drawn) [Example 31, 1,4-Dihydro-2,6-dimethyl-4-thieno[3,2-c]pyridin-3-yl-3,5-pyridine dicarboxylic acid, 3-methyl 5-(2-[methyl(phenylmethyl)amino]ethyl)ester] was run?
Answer: 126 nM

Question: For `COC(=O)C1=C(C)NC(C)=C(C(=O)OC)C1c1csc2ccncc12` [Example 9, 1,4-Dihydro-2,6-dimethyl-4-thieno[3,2-c]pyridin-3-yl-3,5-pyridinedicarboxylic acid, dimethyl ester], which IC50 is on record?
Answer: 100 nM

Question: Which IC50 does the source give for `COC(=O)C1=C(C)NC(C)=C(C(=O)OCC(C)C)C1c1csc2ccncc12` (stereo not drawn) [Example 43, 1,4-Dihydro-2,6-dimethyl-4-thieno[3,2-c]pyridin-3-yl-3,5-pyridinedicarboxylic acid, methyl 2-methylpropyl ester] here?
Answer: 100 nM

Question: `CCOC(=O)C1=C(C)NC(C)=C(C(=O)OCC)C1c1cc2cnccc2s1` [Example 2, 1,4-Dihydro-2,6-dimethyl-4-(thieno[3,2-c]pyridin-2-yl)-3,5-pyridinedicarboxylic acid, diethyl ester] was tested. Which IC50 did it give?
Answer: 10700 nM

Question: With `CC1=C(C(=O)OCCN(C)Cc2ccccc2)C(c2csc3ccccc23)C(C(=O)OCCN(C)Cc2ccccc2)=C(C)N1` [Example 32] as the molecule, how does the IC50 read?
Answer: 21400 nM

Question: With `C=CCOC(=O)C1=C(C)NC(C)=C(C(=O)OC)C1c1csc2ccncc12` (stereo not drawn) [Example 50, 1,4-Dihydro-2,6-dimethyl-4-thieno[3,2-c]pyridin-3-yl-3,5-pyridinecarboxylic acid, methyl 2-propenyl ester] as the molecule, how does the IC50 read?
Answer: 40.7 nM

Question: `CCOC(=O)C1=C(C)NC(C)=C(C(=O)OC)C1c1csc2ccncc12` (stereo not drawn) [Example 33, 1,4-Dihydro-2,6-dimethyl-4-thieno[3,2-c]pyridin-3-yl-3,5-pyridinedicarboxylic acid, ethyl methyl ester] was tested. Which IC50 did it give?
Answer: 30.2 nM

Question: How did the IC50 turn out when `CC1=C(C(=O)OC(C)C)C(c2csc3ccncc23)C(C(=O)OC(C)C)=C(C)N1` [Example 7, 1,4-Dihydro-2,6-dimethyl-4-thieno[3,2-c]pyridin-3-yl-3,5-pyridinedicarboxylic acid, diisopropyl ester] was run?
Answer: 398 nM

Question: How did the IC50 turn out when `CCOC(=O)C1=C(C)NC(C)=C(C(=O)OCC)C1c1cc2ccccc2s1` [Example 1, 4-Benzo[b]thien-2-yl-1,4-dihydro-2,6-dimethyl-3,5-pyridinedicarboxylic acid, diethyl ester] was run?
Answer: 110000 nM

Question: With `CCCCOC(=O)C1=C(C)NC(C)=C(C(=O)OCCCC)C1c1csc2ccncc12` [Example 53, 1,4-Dihydro-2,6-dimethyl-4-thieno[3,2-c]pyridin-3-yl-3,5-pyridinedicarboxylic acid, dibutyl ester] as the molecule, how does the IC50 read?
Answer: 1070 nM

Question: How did the IC50 turn out when `CCOC(=O)C1=C(C)NC(C)=C(C(=O)OCC)C1c1c(C)sc2ccncc12` [Example 6, 1,4-Dihydro-2,6-dimethyl-4-(2-methylthieno[3,2-c]pyridin-3-yl)-3,5-pyridinedicarboxylic acid, diethyl ester] was run?
Answer: 398 nM

Question: How did the IC50 turn out when `CCOC(=O)C1=C(C)NC(C)=C(C(=O)OCC)C1c1nccc2ccsc12` [Example 24, 1,4-Dihydro-2,6-dimethyl-4-thieno[2,3-c]pyridin-7-yl-3,5-pyridinedicarboxylic acid, diethyl ester] was run?
Answer: 83.2 nM

Question: `CCOC(=O)C1=C(C)NC(C)=C(C(=O)OCC)C1c1csc2c([N+](=O)[O-])cccc12` [Example 25, 1,4-Dihydro-2,6-dimethyl-4-(7-nitrobenzo[b]thien-3-yl)-3,5-pyridinedicarboxylic acid, diethyl ester] was tested. Which IC50 did it give?
Answer: 1700 nM

Question: With `CCOC(=O)C1=C(C)NC(C)=C(C(=O)OCC)C1c1csc2c(C)nccc12` [Example 14, 1,4-Dihydro-2,6-dimethyl-4-(7-methylthieno[2,3-c]pyridin-3-yl)-3,5-pyridinedicarboxylic acid, diethyl ester] as the molecule, how does the IC50 read?
Answer: 3160 nM

Question: `CCOC(=O)C1=C(C)NC(C)=C(C(=O)OCC)C1c1cccc2sccc12` [Example 55, 4-(Benzo[b]thien-4-yl)-1,4-dihydro-2,6-dimethyl-3,5-pyridinedicarboxylic a cid, diethyl ester] was tested. Which IC50 did it give?
Answer: 151 nM

Question: For `COC(=O)C1=C(C)NC(C)=C(C(=O)OCCC#N)C1c1csc2ccncc12` (stereo not drawn) [Example 34, 1,4-Dihydro-2,6-dimethyl-4-thieno[3,2-c]pyridin-3-yl-3,5-pyridinedicarboxylic acid, 2-cyanoethyl methyl ester], which IC50 is on record?
Answer: 316 nM

Question: `CCOC(=O)C1=C(C)NC(C)=C(C(=O)OCC)C1c1csc2cnccc12` [Example 12, 1,4-Dihydro-2,6-dimethyl-4-thieno[2,3-c]pyridin-3-yl-3,5-pyridinedicarboxylic acid, diethyl ester] was tested. Which IC50 did it give?
Answer: 40.7 nM

Question: With `CCOC(=O)C1=C(C)NC(C)=C(C(=O)OCCN(C)Cc2ccccc2)C1c1csc2ccccc12` (stereo not drawn) [Example 18, 4-Benzo[b]thien-3-yl-1,4-dihydro-2,6-dimethyl-3,5-pyridinedicarboxylic acid, 3-ethyl 5-(2-[methyl(phenylmethyl)amino]ethyl)ester] as the molecule, how does the IC50 read?
Answer: 3470 nM

same assay, conditions: coronary artery rings contracted with 50 mM KCl, 37° C.; IC50 = 50% relaxation; mean values, probit analysis

Question: `CCOC(=O)C1=C(C)NC(C)=C(C(=O)OCC)C1c1csc2ccncc12` [Example 5, 1,4-Dihydro-2,6-dimethyl-4-thieno[3,2-c]pyridin-3-yl-3,5-pyridinedicarboxylic acid, diethyl ester] was tested. Which “-log IC50” value did it give?
Answer: 7.55

Question: For `CCOC(=O)C1=C(C)NC(C)=C(C(=O)OCCOC)C1c1csc2cccnc12` (stereo not drawn) [Example 19, 1,4-Dihydro-2,6-dimethyl-4-thieno[3,2-]pyridin-3-yl-3,5-pyridinedicarboxylic acid, 3-ethyl 5-(2-methoxyethyl)ester], which “-log IC50” value is on record?
Answer: 7.0

Question: For `CCOC(=O)C1=C(C)NC(C)=C(C(=O)OCC)C1c1nccc2ccsc12` [Example 54, 1,4-Dihydro-2,6-dimethyl-4-thieno[2,3-c]pyridin-7-yl-3,5-pyridinedicarboxylic acid, diethyl ester], which “-log IC50” value is on record?
Answer: 7.1

Question: Which “-log IC50” value does the source give for `CCOC(=O)C1=C(C)NC(C)=C(C(=O)OCC)C1c1csc2ccncc12` [Example 52, 1,4-Dihydro-2,6-dimethyl-4-thieno[3,2-c]pyridin-3-yl-3,5-pyridinedicarboxylic acid, diethyl ester] here?
Answer: 6.94
